Test [1] addresses Histone-lysine N-methyltransferase, H3 lysine-79 specific (Homo sapiens) (UniProt Q8TEK3). Put plainly: Displacement of 3H-SAM from DOT1L (unknown origin) at 30 uM incubated for 1 hr in presence of substrate by SPA assay relative to control.
For test [2], the target named is T1, Protein arginine N-methyltransferase 7 (Homo sapiens) (UniProt Q9NVM4).
T1 sequence (whole entry): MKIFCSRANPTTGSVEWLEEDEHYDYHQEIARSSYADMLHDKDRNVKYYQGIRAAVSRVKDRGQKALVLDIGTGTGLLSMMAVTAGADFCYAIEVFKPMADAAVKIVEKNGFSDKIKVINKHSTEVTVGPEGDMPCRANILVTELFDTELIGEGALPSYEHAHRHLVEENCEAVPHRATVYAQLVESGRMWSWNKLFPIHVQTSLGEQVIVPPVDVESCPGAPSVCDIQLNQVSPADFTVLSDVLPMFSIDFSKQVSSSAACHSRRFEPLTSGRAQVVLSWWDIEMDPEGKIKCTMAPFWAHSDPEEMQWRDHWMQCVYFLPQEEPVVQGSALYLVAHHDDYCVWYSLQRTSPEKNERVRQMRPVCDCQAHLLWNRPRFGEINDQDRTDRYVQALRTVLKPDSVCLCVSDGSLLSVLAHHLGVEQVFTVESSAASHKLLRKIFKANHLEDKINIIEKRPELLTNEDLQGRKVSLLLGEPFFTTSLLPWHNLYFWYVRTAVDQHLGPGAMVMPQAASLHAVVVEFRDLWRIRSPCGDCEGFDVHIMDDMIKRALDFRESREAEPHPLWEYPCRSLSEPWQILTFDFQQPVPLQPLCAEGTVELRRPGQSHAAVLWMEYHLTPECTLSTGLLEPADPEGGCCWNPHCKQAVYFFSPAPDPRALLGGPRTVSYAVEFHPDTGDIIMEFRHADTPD
Put plainly: Displacement of 3H-SAM from human PRMT7 at 50 uM in presence of substrate by SPA assay. In general terms: Displacement assays read how much labelled ligand stays bound in the presence of the test substance.

In test [3] the target is T2, Protein arginine N-methyltransferase 9 (Homo sapiens) (UniProt Q6P2P2).
T2 sequence (whole entry): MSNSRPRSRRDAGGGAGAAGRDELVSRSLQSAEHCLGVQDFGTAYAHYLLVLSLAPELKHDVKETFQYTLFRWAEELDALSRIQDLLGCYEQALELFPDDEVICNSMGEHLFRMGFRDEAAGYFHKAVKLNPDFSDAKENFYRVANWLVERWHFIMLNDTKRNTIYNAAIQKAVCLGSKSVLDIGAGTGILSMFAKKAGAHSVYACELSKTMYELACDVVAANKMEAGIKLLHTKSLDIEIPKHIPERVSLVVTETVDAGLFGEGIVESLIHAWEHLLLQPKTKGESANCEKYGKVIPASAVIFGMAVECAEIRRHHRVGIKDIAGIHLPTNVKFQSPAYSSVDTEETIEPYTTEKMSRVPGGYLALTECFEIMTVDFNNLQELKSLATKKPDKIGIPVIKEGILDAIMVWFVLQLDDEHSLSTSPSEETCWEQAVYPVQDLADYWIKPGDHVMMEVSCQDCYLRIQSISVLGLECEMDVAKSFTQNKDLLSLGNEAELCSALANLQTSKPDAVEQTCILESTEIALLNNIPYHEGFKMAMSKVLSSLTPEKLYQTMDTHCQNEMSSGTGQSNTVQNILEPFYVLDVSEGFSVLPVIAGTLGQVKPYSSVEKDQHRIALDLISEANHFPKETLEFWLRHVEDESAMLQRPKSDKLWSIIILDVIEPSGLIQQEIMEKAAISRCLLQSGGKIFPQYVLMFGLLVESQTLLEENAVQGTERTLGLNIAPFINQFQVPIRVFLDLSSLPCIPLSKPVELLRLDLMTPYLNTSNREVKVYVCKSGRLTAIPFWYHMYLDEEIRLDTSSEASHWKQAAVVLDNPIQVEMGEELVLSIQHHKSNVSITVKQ
Put plainly: Displacement of 3H-SAM from human PRMT9 at 50 uM in presence of substrate by SPA assay.

Test [4] addresses T3, Protein arginine N-methyltransferase 6 (Homo sapiens, UniProt Q96LA8). Put plainly: Displacement of 3H-SAM from human PRMT6 at 50 uM in presence of substrate by SPA assay.
Target sequence in this assay (Q96LA8 whole entry, looked up): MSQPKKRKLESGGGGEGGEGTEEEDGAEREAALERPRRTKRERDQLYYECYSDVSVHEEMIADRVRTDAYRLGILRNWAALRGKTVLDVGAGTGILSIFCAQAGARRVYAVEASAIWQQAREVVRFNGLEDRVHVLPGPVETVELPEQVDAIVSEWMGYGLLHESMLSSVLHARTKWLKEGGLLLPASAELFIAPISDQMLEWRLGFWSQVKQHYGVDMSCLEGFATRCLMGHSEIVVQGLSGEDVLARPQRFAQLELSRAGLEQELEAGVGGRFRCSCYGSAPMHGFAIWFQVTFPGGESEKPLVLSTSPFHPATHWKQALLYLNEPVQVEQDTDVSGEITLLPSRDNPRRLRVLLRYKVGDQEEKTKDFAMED
For test [5], the target named is T4, Protein arginine N-methyltransferase 8 (Homo sapiens, UniProt Q9NR22). Put plainly: Displacement of 3H-SAM from human PRMT8 at 50 uM in presence of substrate by SPA assay.
Target sequence in this assay (Q9NR22 2-394 limits assumed): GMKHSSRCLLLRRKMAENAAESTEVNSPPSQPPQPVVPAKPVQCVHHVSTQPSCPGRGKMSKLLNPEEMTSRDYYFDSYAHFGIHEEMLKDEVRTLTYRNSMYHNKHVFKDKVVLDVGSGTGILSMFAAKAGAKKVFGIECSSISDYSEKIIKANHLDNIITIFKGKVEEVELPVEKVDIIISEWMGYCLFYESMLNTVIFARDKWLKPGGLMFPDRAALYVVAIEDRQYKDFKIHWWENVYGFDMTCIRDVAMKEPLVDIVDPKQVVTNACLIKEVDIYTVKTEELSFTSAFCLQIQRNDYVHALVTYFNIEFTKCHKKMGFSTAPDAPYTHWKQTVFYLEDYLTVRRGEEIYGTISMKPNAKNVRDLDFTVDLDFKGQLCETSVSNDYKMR
For test [6], the target named is T5, Histone-arginine methyltransferase CARM1 (Homo sapiens) (UniProt Q86X55).
T5 sequence (whole entry): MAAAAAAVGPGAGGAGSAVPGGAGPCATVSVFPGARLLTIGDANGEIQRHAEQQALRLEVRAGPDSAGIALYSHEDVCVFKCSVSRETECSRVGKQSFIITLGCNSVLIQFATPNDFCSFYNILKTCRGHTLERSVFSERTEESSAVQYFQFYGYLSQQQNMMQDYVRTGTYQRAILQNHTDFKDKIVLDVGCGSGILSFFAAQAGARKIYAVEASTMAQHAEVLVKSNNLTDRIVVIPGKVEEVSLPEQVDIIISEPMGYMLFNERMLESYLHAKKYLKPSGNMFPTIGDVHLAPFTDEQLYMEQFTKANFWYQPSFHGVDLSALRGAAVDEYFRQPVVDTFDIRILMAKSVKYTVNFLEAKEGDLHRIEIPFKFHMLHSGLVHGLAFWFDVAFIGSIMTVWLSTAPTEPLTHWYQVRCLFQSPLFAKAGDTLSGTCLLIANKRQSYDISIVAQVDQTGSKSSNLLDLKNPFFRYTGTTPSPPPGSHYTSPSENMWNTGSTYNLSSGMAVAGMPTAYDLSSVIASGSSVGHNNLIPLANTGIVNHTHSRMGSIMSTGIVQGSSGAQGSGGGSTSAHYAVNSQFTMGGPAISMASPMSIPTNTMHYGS
Nature of the test: Displacement of 3H-SAM from human PRMT4 at 50 uM in presence of substrate by SPA assay.

Test [7] addresses T6, Protein arginine N-methyltransferase 3 (Homo sapiens, UniProt O60678). Put plainly: Displacement of 3H-SAM from human PRMT3 at 50 uM in presence of substrate by SPA assay.
Target sequence in this assay (O60678 2-531 limits assumed): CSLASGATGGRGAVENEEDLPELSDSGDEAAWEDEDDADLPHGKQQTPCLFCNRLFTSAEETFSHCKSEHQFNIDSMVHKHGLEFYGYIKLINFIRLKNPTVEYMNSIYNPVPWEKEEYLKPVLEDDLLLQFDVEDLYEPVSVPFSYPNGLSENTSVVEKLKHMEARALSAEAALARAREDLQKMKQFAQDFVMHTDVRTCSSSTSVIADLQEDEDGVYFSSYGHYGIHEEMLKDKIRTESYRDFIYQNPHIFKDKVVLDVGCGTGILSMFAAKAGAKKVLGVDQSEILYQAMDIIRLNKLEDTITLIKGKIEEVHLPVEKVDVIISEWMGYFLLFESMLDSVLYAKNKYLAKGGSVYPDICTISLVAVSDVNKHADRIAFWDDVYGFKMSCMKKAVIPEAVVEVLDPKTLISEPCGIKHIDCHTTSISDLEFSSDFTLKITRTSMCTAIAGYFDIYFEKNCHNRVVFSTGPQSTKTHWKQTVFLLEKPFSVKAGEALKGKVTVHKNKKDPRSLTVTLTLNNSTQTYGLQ
The target in test [8] is T7, Histone-lysine N-methyltransferase SMYD3 (Homo sapiens) (UniProt Q9H7B4).
T7 sequence (whole entry): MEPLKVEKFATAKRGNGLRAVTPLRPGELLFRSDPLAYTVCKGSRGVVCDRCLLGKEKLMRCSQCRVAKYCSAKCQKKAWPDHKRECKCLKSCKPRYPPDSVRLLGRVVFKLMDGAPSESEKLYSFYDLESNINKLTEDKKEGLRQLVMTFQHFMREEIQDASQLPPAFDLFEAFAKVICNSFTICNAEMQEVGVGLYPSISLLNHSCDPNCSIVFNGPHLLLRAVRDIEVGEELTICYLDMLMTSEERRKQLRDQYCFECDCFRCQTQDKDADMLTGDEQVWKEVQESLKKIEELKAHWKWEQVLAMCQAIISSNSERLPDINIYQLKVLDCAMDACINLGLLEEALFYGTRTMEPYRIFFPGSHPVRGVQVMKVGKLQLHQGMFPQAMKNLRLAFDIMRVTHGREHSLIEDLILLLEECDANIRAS
Put plainly: Displacement of 3H-SAM from SMYD3 (unknown origin) using biotinylated-MAP3K2 as substrate at 30 uM incubated for 45 mins by SPA assay relative to control.

Test [9] has as its target Protein arginine N-methyltransferase 5 (Homo sapiens) (UniProt O14744). Put plainly: Displacement of 3H-SAM from human PRMT5 at 50 uM in presence of substrate by SPA assay.
The target of test [10] is T8, Histone-lysine N-methyltransferase SUV39H1 (Homo sapiens) (UniProt O43463).
T8 sequence (whole entry): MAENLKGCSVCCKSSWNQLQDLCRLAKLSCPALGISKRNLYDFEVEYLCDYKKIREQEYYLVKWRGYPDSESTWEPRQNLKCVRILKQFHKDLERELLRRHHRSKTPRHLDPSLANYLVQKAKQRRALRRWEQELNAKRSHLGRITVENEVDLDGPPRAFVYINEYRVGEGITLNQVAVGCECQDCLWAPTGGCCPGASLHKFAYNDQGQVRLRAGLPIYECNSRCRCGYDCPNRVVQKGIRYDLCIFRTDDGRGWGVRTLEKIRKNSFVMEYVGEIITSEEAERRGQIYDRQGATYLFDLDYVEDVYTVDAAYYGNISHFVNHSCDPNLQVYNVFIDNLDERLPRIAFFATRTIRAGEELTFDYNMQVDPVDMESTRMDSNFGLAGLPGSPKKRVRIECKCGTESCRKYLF
Put plainly: Displacement of 3H-SAM from SUV39H1 (unknown origin) using biotinylated-histone H3 peptide as substrate at 30 uM incubated for 45 mins by SPA assay relative to control.

In test [11] the target is T9, Histone-arginine methyltransferase CARM1 (Homo sapiens, UniProt Q86X55).
T9 sequence (Q86X55 whole entry): T5 sequence (whole entry)
Put plainly: Inhibition of PRMT4 (unknown origin).

In test [12] the target is T6, Protein arginine N-methyltransferase 3. Nature of the test: Inhibition of PRMT3 (unknown origin).
Target sequence in this assay (O60678 whole entry): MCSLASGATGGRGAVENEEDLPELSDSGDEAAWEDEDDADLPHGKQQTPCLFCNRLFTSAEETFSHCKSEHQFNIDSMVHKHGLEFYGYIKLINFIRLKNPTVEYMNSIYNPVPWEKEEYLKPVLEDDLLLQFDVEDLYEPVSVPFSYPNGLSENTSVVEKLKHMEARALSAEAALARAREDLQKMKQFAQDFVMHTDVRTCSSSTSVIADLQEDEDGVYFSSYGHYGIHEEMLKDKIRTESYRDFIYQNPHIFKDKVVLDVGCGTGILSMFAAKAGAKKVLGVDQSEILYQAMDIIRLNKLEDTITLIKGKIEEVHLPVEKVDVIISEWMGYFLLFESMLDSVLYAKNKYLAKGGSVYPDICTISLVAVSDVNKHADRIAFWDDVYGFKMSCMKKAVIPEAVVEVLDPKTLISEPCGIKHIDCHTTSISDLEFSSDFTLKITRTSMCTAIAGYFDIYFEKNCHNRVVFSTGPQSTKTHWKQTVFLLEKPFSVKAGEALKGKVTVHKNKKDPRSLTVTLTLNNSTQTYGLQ
Test [13] deals with Protein arginine N-methyltransferase 1 (Homo sapiens, UniProt Q99873). Put plainly: Inhibition of PRMT1 (unknown origin).
Test [14] addresses T4, Protein arginine N-methyltransferase 8. Nature of the test: Inhibition of PRMT8 (unknown origin).
Target sequence in this assay (Q9NR22 whole entry): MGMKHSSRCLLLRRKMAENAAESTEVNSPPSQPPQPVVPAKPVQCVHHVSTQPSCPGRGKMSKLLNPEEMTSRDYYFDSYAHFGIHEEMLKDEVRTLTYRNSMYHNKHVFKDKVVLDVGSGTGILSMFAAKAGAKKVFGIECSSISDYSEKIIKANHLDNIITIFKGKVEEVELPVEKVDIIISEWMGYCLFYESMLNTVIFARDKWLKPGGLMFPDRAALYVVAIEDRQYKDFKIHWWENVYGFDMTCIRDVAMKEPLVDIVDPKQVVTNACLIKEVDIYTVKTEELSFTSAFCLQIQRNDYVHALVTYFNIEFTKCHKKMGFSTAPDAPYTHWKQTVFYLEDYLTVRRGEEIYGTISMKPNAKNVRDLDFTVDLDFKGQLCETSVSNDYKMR
Test [15] addresses T3, Protein arginine N-methyltransferase 6. Put plainly: Inhibition of PRMT6 (unknown origin).
Target sequence in this assay (Q96LA8 whole entry): as the sequence (Q96LA8 whole entry, looked up) above

Each structure is given as a SMILES string. The source made the active and inactive calls. The calls are words filed in the database; no cut-off is given here.

Experimental findings from ChEMBL document CHEMBL5625232, “Development of selective class I protein arginine methyltransferase inhibitors through fragment-based drug design approach” (Eur J Med Chem, 2023) are described below.

Usually inhibition stands for the percentage by which the read-out fell short of the control. The IC50 is the concentration at which inhibition is half-maximal. A higher IC50 goes with a need for much substance.

Protein arginine N-methyltransferase 5 (Homo sapiens), sequence (O14744 whole entry): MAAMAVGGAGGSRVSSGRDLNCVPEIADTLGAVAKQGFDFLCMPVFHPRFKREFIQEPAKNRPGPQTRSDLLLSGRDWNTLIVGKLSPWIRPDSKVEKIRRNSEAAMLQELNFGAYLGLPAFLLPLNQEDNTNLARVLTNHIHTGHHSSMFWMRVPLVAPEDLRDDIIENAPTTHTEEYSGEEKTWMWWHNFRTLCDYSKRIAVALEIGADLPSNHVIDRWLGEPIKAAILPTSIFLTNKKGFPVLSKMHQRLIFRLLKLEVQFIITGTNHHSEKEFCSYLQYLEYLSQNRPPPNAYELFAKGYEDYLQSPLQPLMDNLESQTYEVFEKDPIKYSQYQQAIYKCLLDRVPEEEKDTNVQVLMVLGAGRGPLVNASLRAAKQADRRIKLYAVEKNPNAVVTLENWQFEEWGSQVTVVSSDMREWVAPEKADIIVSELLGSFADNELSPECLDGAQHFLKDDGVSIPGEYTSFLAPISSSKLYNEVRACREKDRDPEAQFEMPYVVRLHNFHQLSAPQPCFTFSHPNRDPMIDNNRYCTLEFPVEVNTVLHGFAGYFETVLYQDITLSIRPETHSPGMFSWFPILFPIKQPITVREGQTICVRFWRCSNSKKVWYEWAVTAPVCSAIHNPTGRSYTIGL
Histone-lysine N-methyltransferase, H3 lysine-79 specific (Homo sapiens), sequence (Q8TEK3 whole entry, looked up): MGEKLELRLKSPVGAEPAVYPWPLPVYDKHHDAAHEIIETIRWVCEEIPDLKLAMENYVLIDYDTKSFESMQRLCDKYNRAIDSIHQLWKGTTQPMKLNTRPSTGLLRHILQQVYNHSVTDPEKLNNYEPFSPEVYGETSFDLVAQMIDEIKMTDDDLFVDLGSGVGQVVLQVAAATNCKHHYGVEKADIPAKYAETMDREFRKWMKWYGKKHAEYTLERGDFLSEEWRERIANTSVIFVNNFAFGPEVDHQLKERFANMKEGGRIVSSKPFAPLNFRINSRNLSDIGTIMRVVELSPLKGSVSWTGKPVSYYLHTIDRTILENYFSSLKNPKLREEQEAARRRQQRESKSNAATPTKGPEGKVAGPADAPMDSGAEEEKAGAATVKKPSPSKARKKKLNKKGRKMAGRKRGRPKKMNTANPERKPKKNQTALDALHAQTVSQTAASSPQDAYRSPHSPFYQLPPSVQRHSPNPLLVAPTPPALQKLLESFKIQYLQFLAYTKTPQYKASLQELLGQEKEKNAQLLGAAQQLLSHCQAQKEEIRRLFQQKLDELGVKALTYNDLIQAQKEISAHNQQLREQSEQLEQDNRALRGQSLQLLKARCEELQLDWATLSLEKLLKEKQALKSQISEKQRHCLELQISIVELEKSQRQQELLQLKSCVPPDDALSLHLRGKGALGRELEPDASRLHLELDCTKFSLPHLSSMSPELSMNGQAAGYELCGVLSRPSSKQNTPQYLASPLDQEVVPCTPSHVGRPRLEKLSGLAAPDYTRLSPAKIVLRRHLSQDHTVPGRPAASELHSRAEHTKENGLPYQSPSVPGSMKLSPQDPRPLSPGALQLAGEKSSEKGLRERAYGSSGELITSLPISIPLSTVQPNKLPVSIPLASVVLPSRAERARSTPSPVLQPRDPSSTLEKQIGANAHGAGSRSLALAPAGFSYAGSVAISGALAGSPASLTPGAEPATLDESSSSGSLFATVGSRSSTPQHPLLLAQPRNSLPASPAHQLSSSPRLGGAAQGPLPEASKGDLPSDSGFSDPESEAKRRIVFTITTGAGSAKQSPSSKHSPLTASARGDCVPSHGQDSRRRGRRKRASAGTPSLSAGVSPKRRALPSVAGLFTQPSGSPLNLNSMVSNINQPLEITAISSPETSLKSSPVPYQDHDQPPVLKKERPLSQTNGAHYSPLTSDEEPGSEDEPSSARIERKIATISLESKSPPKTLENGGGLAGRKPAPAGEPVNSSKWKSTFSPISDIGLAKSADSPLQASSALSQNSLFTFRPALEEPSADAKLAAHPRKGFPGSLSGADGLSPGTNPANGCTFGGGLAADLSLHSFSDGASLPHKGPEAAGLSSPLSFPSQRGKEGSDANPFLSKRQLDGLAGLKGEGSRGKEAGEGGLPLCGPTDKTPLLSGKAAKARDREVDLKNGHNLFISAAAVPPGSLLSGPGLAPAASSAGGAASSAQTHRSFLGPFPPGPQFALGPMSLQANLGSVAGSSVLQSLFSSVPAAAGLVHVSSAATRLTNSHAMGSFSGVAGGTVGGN
Protein arginine N-methyltransferase 1, sequence (Q99873 whole entry): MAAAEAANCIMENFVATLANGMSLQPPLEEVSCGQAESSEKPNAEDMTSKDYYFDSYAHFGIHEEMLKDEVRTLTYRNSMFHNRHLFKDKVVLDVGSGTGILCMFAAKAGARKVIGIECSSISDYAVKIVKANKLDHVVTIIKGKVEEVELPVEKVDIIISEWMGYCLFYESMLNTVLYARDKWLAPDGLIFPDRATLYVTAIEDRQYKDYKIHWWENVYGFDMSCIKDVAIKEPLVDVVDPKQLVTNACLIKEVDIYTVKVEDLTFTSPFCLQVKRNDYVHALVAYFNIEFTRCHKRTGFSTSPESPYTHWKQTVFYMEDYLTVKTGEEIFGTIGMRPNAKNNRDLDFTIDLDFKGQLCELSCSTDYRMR

Regarding `CN(C)CCCNC(=O)c1ccc2c(Nc3ccc(CN)cc3)ncnc2c1`, the inhibition in [1] was 0%; in test [8], under 25%; in [10], under 25%. Besides, the inhibition result in [2], in test [3], in test [4], in test [5], in test [6] and in test [7] was “Active” throughout. Further, the inhibition entry in [9] was “Active”.
Turning to `CC(C)Oc1ccc(-c2c[nH]cc2CNCCN)cc1`, the IC50 in test [11] stood at 83 nM; in test [12], 119 nM; in test [13], 30 nM; in test [14], 5 nM; in test [15] it was 4 nM.
